Assay results: patent US9193695B2, “1, 2, 4-triazolone derivative and use thereof as an antagonist on the arginine-vasopressin 1B receptor” (TAISHO PHARMACEUTICAL CO., LTD., priority 2010, dated 2015)
Where a name gives a salt, the structure may show the parent alone.

Target: T1, Human V1b receptor (Homo sapiens, UniProt P47901)
T1 sequence (P47901 1-424): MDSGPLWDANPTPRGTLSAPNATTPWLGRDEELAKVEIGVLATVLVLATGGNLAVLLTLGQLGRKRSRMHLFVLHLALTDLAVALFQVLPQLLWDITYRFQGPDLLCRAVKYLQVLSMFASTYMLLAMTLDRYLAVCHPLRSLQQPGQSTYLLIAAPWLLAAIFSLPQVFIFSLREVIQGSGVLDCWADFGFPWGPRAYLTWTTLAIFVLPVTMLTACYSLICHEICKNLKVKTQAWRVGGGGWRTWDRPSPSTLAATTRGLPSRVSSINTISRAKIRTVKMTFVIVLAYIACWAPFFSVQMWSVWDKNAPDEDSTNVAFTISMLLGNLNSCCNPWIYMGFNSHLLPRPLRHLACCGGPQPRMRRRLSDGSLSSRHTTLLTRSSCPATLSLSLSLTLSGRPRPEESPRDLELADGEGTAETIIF
Assay: Binding test for V1b receptor ([3H]AVP displacement, crude membrane preparation)
Set-up: expressed in transfected cells; host or cells: 293FT cells (Invitrogen), transient expression; crude membrane preparation
Conditions: [3H]AVP 0.4 to 1 nmol/L; membranes of 293FT cells transiently expressing human V1b receptor; room temperature, 60 minutes
Description: Binding Test for V1b Receptor
Human V1b receptor was transiently expressed in 293FT cells (Invitrogen). The cells were collected and were homogenated in a 15 mmol/L tris-hydrochloric acid buffer (pH 7.4, containing 2 mmol/L magnesium chloride, 0.3 mmol/L ethylenediaminetetracetic acid, and 1 mmol/L glycol ether diaminetetraacetic acid). The resulting homogenate was centrifuged at 50,000×g at 4° C. for 20 minutes. The precipitate was resuspended in a 75 mmol/L tris-hydrochloric acid buffer (pH 7.4, containing 12.5 mmol/L magnesium chloride, 0.3 mmol/L ethylenediaminetetracetic acid, 1 mmol/L glycol ether diamine tetraacetic acid, and 250 mmol/L sucrose) to give a crude membrane preparation, which was stored at −80° C. until the binding test. In the binding test, the crude membrane preparation was diluted with a 50 mmol/L tris-hydrochloric acid buffer (pH 7.4, containing 10 mmol/L magnesium chloride and 0.1% bovine serum albumin), and test compound was serially diluted with DMSO. The diluted crude membrane preparation was incubated with each test compound (final concentration of 0.01 nmol/L to 1 μmol/L) and [^3H]AVP (final concentration: 0.4 to 1 nmol/L) at room temperature for 60 minutes. After the incubation, the mixture was suction filtered through a GF/C filter pretreated with 0.3% polyethyleneimine. The GF/C filter was dried, and a scintillator was added thereto. The radioactivity remaining on the filter was measured using TopCount (PerkinElmer Inc.). The radioactivity in the presence of 10 μmol/L of unlabeled AVP was defined as 0%, and the radioactivity in the absence of unlabeled AVP was defined as 100%. A dose-response curve was plotted from radioactivities in the presence of a test compound at various concentrations, and the 50% inhibitory concentration (IC50 value) of the compound was calculated.

Compound | IC50
COc1cc(-c2nn(-c3ccc(CCN4CCC(C#N)CC4)cc3)c(=O)n2CC(=O)NC(C)C)ccc1F [Ca-10, 2-[1-{4-[2-(4-Cyanopiperidin-1-yl)ethyl]phenyl}-3-(4-fluoro-3-methoxyphenyl)-5-oxo-1,5-dihydro-4H-1,2,4-triazol-4-yl]-N-(propan-2-yl)acetamide] | 100 to 1000 nM
CC(C)NC(=O)Cn1c(-c2cccc(Cl)c2)nn(-c2ccc(CC(C)N3C4CCC3COC4)cc2)c1=O (stereo not drawn) [Ad-14, 2-[3-(3-Chlorophenyl)-1-{4-[2-(3-oxa-8-azabicyclo[3.2.1]oct-8-yl)propyl]phenyl}-5-oxo-1,5-dihydro-4H-1,2,4-triazol-4-yl]-N-(propan-2-yl)acetamide] | 0.54 nM
COc1cc(-c2nn(-c3ccc(CCN4CCC(C(N)=O)CC4)cc3)c(=O)n2CC(=O)NC(C)C)ccc1F [Ca-13, 1-[2-(4-{3-(4-Fluoro-3-methoxyphenyl)-5-oxo-4-[2-oxo-2-(propan-2-ylamino)ethyl]-4,5-dihydro-1H-1,2,4-triazol-1-yl}phenyl)ethyl]piperidine 4-carboxamide] | 100 to 1000 nM
CC(C)NC(=O)Cn1c(-c2cccc(Cl)c2)nn(-c2ccc(CC(C)N3C4CCC3COC4)cn2)c1=O (single isomer, unassigned; (+)) [Ad-19-2] | 17 nM
COc1cc(-c2nn(-c3ccc(CCN4CCC(NC(C)=O)CC4)cc3)c(=O)n2CC(=O)NC(C)C)ccc1F [Ca-17, 2-[1-(4-{2-[4-(Acetylamino)piperidin-1-yl]ethyl}phenyl)-3-(4-fluoro-3-methoxyphenyl)-5-oxo-1,5-dihydro-4H-1,2,4-triazol-4-yl]-N-(propan-2-yl)acetamide] | 100 to 1000 nM
CC(C)NC(=O)Cn1c(-c2cccc(Cl)c2)nn(-c2ccc(CCN3C4CCC3COC4)c(F)c2)c1=O [Ad-8, 2-[3-(3-Chlorophenyl)-1-{3-fluoro-4-[2-(3-oxa-8-azabicyclo[3.2.1]oct-8-yl)ethyl]phenyl}-5-oxo-1,5-dihydro-4H-1,2,4-triazol-4-yl]-N-(propan-2-yl)acetamide] | 1.5 nM
COc1cc(-c2nn(-c3ccc(CCN4CCC(C(F)(F)F)CC4)cc3)c(=O)n2CC(=O)NC(C)C)ccc1F [Ca-19, 2-[3-(4-Fluoro-3-methoxyphenyl)-5-oxo-1-(4-{2-[4-(trifluoromethyl)piperidin-1-yl]ethyl}phenyl)-1,5-dihydro-4H-1,2,4-triazol-4-yl]-N-(propan-2-yl)acetamide trifluoroacetate] | 100 to 1000 nM
COc1cccc(-c2nn(-c3ccc(CC(C)N4C5CCC4COC5)cc3)c(=O)n2CC(=O)NC(C)(C)C)c1 (stereo not drawn) [Bd-3, N-Tert-Butyl-2-[3-(3-methoxyphenyl)-1-{4-[2-(3-oxa-8-azabicyclo[3.2.1]oct-8-yl)propyl]phenyl}-5-oxo-1,5-dihydro-4H-1,2,4-triazol-4-yl]acetamide] | 0.21 nM
COc1cc(-c2nn(-c3ccc(CCN4CCN(C)CC4)cc3)c(=O)n2CC(=O)NC(C)C)ccc1F [Ca-25, 2-[3-(4-Fluoro-3-methoxyphenyl)-1-{4-[2-(4-methylpiperazin-1-yl)ethyl]phenyl}-5-oxo-1,5-dihydro-4H-1,2,4-triazol-4-yl]-N-(propan-2-yl)acetamide trifluoroacetate] | 100 to 1000 nM
COc1cc(-c2nn(-c3ccc(CC(C)N4C5CCC4COC5)cn3)c(=O)n2CC(=O)NC(C)C)ccc1F (stereo not drawn) [Cd-3, 2-[3-(4-Fluoro-3-methoxyphenyl)-1-{5-[2-(3-oxa-8-azabicyclo[3.2.1]oct-8-yl)propyl]pyridin-2-yl}-5-oxo-1,5-dihydro-4H-1,2,4-triazol-4-yl]-N-(propan-2-yl)acetamide] | 0.55 nM
COc1cc(-c2nn(-c3ccc(CCN4C5CCC4COC5)cn3)c(=O)n2CC(=O)NC(C)C)ccc1F [Cb-5, 2-[3-(4-Fluoro-3-methoxyphenyl)-1-{5-[2-(3-oxa-8-azabicyclo[3.2.1]oct-8-yl)ethyl]pyridin-2-yl}-5-oxo-1,5-dihydro-4H-1,2,4-triazol-4-yl]-N-(propan-2-yl)acetamide] | 16 nM
CC(C)NC(=O)Cn1c(-c2ccccc2)nn(-c2ccc(CCN3CCOCC3)cc2)c1=O [Ga-1, 2-(1-{4-[2-(Morpholin-4-yl)ethyl]phenyl}-5-oxo-3-phenyl-1,5-dihydro-4H-1,2,4-triazol-4-yl)-N-(propan-2-yl)acetamide] | 114 nM

Further lines, results first:

IC50 | Compound
15 nM | CC(NC(=O)Cn1c(-c2cccc(Cl)c2)nn(-c2ccc(CCN3CCOCC3)cc2)c1=O)C(F)(F)F (stereo not drawn) [Ad-2, 2-[3-(3-Chlorophenyl)-1-{4-[2-(morpholin-4-yl)ethyl]phenyl}-5-oxo-1,5-dihydro-4H-1,2,4-triazol-4-yl]-N-(1,1,1-trifluoropropan-2-yl)acetamide]
48 nM | CC(C)NC(=O)Cn1c(-c2cccc(C#N)c2)nn(-c2ccc(CCN3CCOCC3)cc2)c1=O [Ea-2, 2-[3-(3-Cyanophenyl)-1-{4-[2-(morpholin-4-yl)ethyl]phenyl}-5-oxo-1,5-dihydro-4H-1,2,4-triazol-4-yl]-N-(propan-2-yl)acetamide]
46 nM | CC(C)NC(=O)Cn1c(-c2cccc(F)c2)nn(-c2ccc(CCN3CCOCC3)cc2)c1=O [Fa-1, 2-[3-(3-Fluorophenyl)-1-{4-[2-(morpholin-4-yl)ethyl]phenyl}-5-oxo-1,5-dihydro-4H-1,2,4-triazol-4-yl]-N-(propan-2-yl)acetamide]
97 nM | O=C(Cn1c(-c2cccc(Cl)c2)nn(-c2ccc(CCN3CCOCC3)cc2)c1=O)NC1COC1 [Ad-5, 2-[3-(3-Chlorophenyl)-1-{4-[2-(morpholin-4-yl)ethyl]phenyl}-5-oxo-1,5-dihydro-4H-1,2,4-triazol-4-yl]-N-(oxetan-3-yl)acetamide]
16 nM | COc1cccc(-c2nn(-c3ccc(CCN4CCOCC4)cc3)c(=O)n2CC(=O)NC(C)C)n1 [Ja-1, 2-[3-(6-Methoxypyridin-2-yl)-1-{4-[2-(morpholin-4-yl)ethyl]phenyl}-5-oxo-1,5-dihydro-4H-1,2,4-triazol-4-yl]-N-(propan-2-yl)acetamide]
62 nM | O=C(Cn1c(-c2cccc(Cl)c2)nn(-c2ccc(CCN3CCOCC3)cc2)c1=O)NCC1CC1 [Ad-6, 2-[3-(3-Chlorophenyl)-1-{4-[2-(morpholin-4-yl)ethyl]phenyl}-5-oxo-1,5-dihydro-4H-1,2,4-triazol-4-yl]-N-(cyclopropylmethyl)acetamide]
3.8 nM | CC(C)NC(=O)Cn1c(-c2cccc(Cl)c2)nn(-c2ccc(CCN3CCOCC3)c(F)c2)c1=O [Ad-7, 2-[3-(3-Chlorophenyl)-1-{3-fluoro-4-[2-(morpholin-4-yl)ethyl]phenyl}-5-oxo-1,5-dihydro-4H-1,2,4-triazol-4-yl]-N-(propan-2-yl)acetamide]
10 to 100 nM | COc1cc(-c2nn(-c3ccc(CCN4CCC(F)CC4)cc3)c(=O)n2CC(=O)NC(C)C)ccc1F [Ca-16, 2-[3-(4-Fluoro-3-methoxyphenyl)-1-{4-[2-(4-fluoropiperidin-1-yl)ethyl]phenyl}-5-oxo-1,5-dihydro-4H-1,2,4-triazol-4-yl]-N-(propan-2-yl)acetamide trifluoroacetate]
10 to 100 nM | CCC1COCCN1CCc1ccc(-n2nc(-c3ccc(F)c(OC)c3)n(CC(=O)NC(C)C)c2=O)cc1 (stereo not drawn) [Ca-23, 2-[1-{4-[2-(3-Ethylmorpholin-4-yl)ethyl]phenyl}-3-(4-fluoro-3-methoxyphenyl)-5-oxo-1,5-dihydro-4H-1,2,4-triazol-4-yl]-N-(propan-2-yl)acetamide]
12 nM | CC(C)NC(=O)Cn1c(-c2ccc(F)c(Cl)c2)nn(-c2ccc(CCN3CCCOCC3)cc2)c1=O [Da-4, 2-[3-(3-Chloro-4-fluorophenyl)-1-{4-[2-(1,4-oxazepan-4-yl)ethyl]phenyl}-5-oxo-1,5-dihydro-4H-1,2,4-triazol-4-yl]-N-(propan-2-yl)acetamide]
37 nM | CC(C)NC(=O)Cn1c(-c2cccc(Cl)c2)nn(-c2ccc(CCN3CCCCC3)cc2)c1=O [Aa-11, 2-[3-(3-Chlorophenyl)-5-oxo-1-{4-[2-(piperidin-1-yl)ethyl]phenyl}-1,5-dihydro-4H-1,2,4-triazol-4-yl]-N-(propan-2-yl)acetamide]
34 nM | CC(C)NC(=O)Cn1c(-c2cccc(Cl)c2)nn(-c2ccc(CCN3CCC(CO)C3)cc2)c1=O (stereo not drawn) [Aa-7, 2-[3-(3-Chlorophenyl)-1-(4-{2-[3-(hydroxymethyl)pyrrolidin-1-yl]ethyl}phenyl)-5-oxo-1,5-dihydro-4H-1,2,4-triazol-4-yl]-N-(propan-2-yl)acetamide]
